Entries after “also recorded” stand apart in the source; their conditions may differ.
Legend:
zebrafish embryos = experiment: Zebrafish behavioral assay (light-dependent motor excitation, excitation score); assay type: in vivo; conditions: for behavioral excitation (activity of optovin analogs) / light-dependent motor excitation in vivo: 10 μM; for behavioral excitation (activity of optovin analogs): n=5, FIG. 2A; for light-dependent motor excitation in vivo: n=3, FIG. 4H
Experimental: To identify small molecules for the optical control of endogenous channels, a screen was conducted for compounds that could drive light-dependent motor behaviors in wild-type zebrafish. Zebrafish embryos are particularly well suited for phenotype based chemical screens^28,29. They are blind for the first 3 days of development and other than a one-time motor response to the first light exposure in dark-adapted animals (the photomotor response, PMR), zebrafish embryos are unresponsive to light^31,30 (FIG. 1A). A library of 10,000 structurally diverse synthetic small molecules was screened for compounds that render zebrafish embryos responsive to light. Behavioral responses were measured for each well in comparison to a set of 2,500 DMSO treated controls. This screen identified a single compound, optovin, that increased motor activity greater than 40 standard deviations above the control mean (FIGS. 1A-1C).
A large number of fertilized eggs (up to 5,000 embryos per day) were collected from group mating of Ekkwill or TuAB zebrafish. Embryos were raised in HEPES (10 mM) buffered E3 media in a dark incubator at 28° C. until […]. Groups of ˜8 embryos (28 hpf) were distributed into the wells of flat bottom black-walled 96 well plates filled with E3 media (360 μl). Embryos were then incubated in a dark incubator 25° C. for chemical treatment and subsequent experiments.
The Tim Tec ACTIPROBEβ library contains 10,000 compounds dissolved in DMSO at a stock concentration of 1 mg/ml (˜3 mM). The Tim Tec library was screened at a 1:300 dilution in E3 buffer for a final concentration of ˜10 μM. Negative controls were treated with an equal volume of DMSO. Stock solutions were added directly to zebrafish in the wells of a 96 well plate, mixed, and allowed to incubate for 2-10 hours in the dark prior to behavioral evaluation in the PMR assay. The Tim Tec library (10,000 compounds) was purchased from the Tim Tec corporation (Newark, Del.). The Neurotransmitter Library (700 compounds; cat #2810) was purchased from Biomol International. Reordered hit compounds were dissolved in DMSO and added to wells as described above.
Animals were exposed to a two pulse stimulus train with a 10 s inter-stimulus interval. Exposure to the first pulse was used to trigger the photomotor response, which has a refractory phase of approximately 10 minutes. […] In a typical assay, 1000 frames of digital video were recorded at 33 fps using a Hamamatsu ORCA-ER camera mounted on a Nikon TE200 microscope with a 1× objective. Instrument control and data measurement were performed using custom scripts for Metamorph Software (Molecular Devices). Each video was saved for review. Light stimuli were generated with a 300-watt xenon bulb housed in a Sutter Lambda LS illuminator and delivered to the well 10 s and 20 s after the start of each video. A cold mirror (reflectance between 300 nm and 700 nm) on the Sutter illuminator was used to block wavelengths outside of this range. Light intensity was measured using a PM100D power meter attached to a S120VC photodiode power sensor (Thorlabs). Where indicated, filters were used to restrict the excitation light to the indicated wavelengths.
To analyze digital video recordings, custom software scripts were used to automatically draw six evenly spaced line segments across each well such that each embryo is likely to be crossed by one of the lines. The software then tracks the average intensity of the pixels for each segment over time. As the embryos move, the light intensity at some of the pixels changes. The motion index was calculated by taking the total absolute difference in pixel intensity between frames. This motion index correlates with the overall amount of motion in the well, both in terms of contraction frequency and number of animals in motion. Behavioral features are quantified by ‘excitation scores’ that are calculated by taking the 75th percentile of the motion index for 3-5 s following the light stimulus. […]

[1] = test system: dorsal root ganglia (DRG) sensory neurons; experiment: Calcium imaging of DRG sensory neurons; assay type: cell-based, mouse; conditions: 100 μM mustard oil
Experimental: To determine if optovin acts on sensory neurons, the activity of treated and untreated dorsal root ganglia (DRG) sensory neurons isolated from wild type mice were compared. […] TRPA1 channels play important roles in detecting chemical, thermal, and mechanical stimuli in a variety of organisms^34,35.
C57Bl/6 male mice (3-4 weeks old) were decapitated and DRG were dissected into 4° C. Hank's Balanced Salt Solution (HBSS; Gibco), then neurons were dissociated using collagenase (1 mg/mL; Worthington) and dispase (5 mg/mL; Gibco) dissolved in HBSS. Neurons were plated in Neurobasal-A medium (Invitrogen), supplemented with B-27 Supplement (Gibco), L-glutamine (Gibco), and penicillin-streptomycin (Gibco). The neurons were plated onto coverslips coated with 0.1 mg/mL poly-D-lysine (Sigma) and 5 μg/mL laminin (Sigma). After 24 h, neurons were washed with assay buffer (HBSS, supplemented with 9 mM HEPES, 11 mM D-glucose, 0.1% fatty-acid free BSA, pH 7.3) and incubated for 1 h with 2 μM Fura2-AM (Invitrogen) with 0.2% pluronic (Invitrogen) in assay buffer in the dark at room temperature. The neurons were then washed with assay buffer and allowed to equilibrate at room temperature for 30 min prior to imaging. After a 120 s baseline perfusion of assay buffer containing 3.3% DMSO, 100 μM optovin dissolved in the DMSO-assay buffer solution, or the DMSO-assay buffer solution alone as a control, was perfused onto the neurons for a period of 1 min. Fura-2 is activated with UV-light, and the process of imaging Fura-2 was enough to activate the optovin. […] Following this one-minute period, cells were perfused with DMSO-assay buffer to remove the agonist, which was followed by addition of 100 μM mustard oil (in DMSO-assay buffer) to determine the total number of TrpA1-expressing neurons present. Images were acquired on a Nikon Eclipse Ti microscope (Nikon, Melville, N.Y.).

Row | Structure (SMILES) | behavioral excitation (activity of optovin analogs) (zebrafish embryos) | also measured
1 | Cc1cc(/C=C2/SC(=S)NC2=O)c(C)n1-c1ccccc1 [6b8] | bioactive; also recorded: active | –
2 | CN(C)c1ccc(C=C2SC(=S)NC2=O)cc1 [6c7] | Neither analog retains activity; also recorded: inactive | –
3 | C1CN2CCN1CC2 [DABCO, 1,4-diazabicyclo[2.2.2]octane, reference compound] | – | effect on other light elicited behaviors (PMR) (zebrafish embryos; co-treatment with optovin): not affect other light elicited behaviors; suppression of the optovin response in vivo (zebrafish embryos; co-treatment with optovin): completely suppress the optovin response
4 | COc1ccc(/C=C2/SC(=S)NC2=O)cc1O [7c7] | – | light-dependent motor excitation in vivo (zebrafish embryos): cause light-dependent motor excitation
5 | O=C1CSC(=S)N1 [6c5] | Neither analog retains activity; also recorded: inactive | –
6 | COc1cc(C(C)=C2SC(=S)NC2=O)ccc1O [7d1] | – | light-dependent motor excitation in vivo (zebrafish embryos): does not cause light dependent motor activity
7 | C=CCN=C=S [mustard oil, reference compound] | – | response of optovin responsive DRG neurons to mustard oil [1]: responded to mustard oil
8 | Cc1cc(/C=C2/NC(=O)NC2=O)c(C)n1-c1cccnc1 [6c4] | retains optovin activity | –
9 | Cc1cc(/C=C2/SC(=S)NC2=O)c(C)n1C [6c1] | bioactive; also recorded: active | lowest effective dose (zebrafish embryos; zebrafish, in vivo): 300 nM; lowest effective dose, fold lower than optovin (zebrafish embryos; zebrafish, in vivo): 10 ×
10 | Cc1cc(C=C2SC(=O)NC2=O)c(C)n1-c1cccnc1 [6c2] | abrogate the optovin response; also recorded: inactive | –
11 | CCN1C(=O)C(=Cc2cc(C)n(-c3cccnc3)c2C)SC1=S [6c3] | abrogate the optovin response; also recorded: inactive | –

— patent publication US9486447B2, “Compositions and methods for controlling neuronal excitation” (The General Hospital Corporation, priority 2011, dated 2016)
